US4220795A, “Cyclobutyl substituted derivatives of prostaglandin analogs” (Miles Laboratories, Inc., priority 1978, dated 1980)

Tests used:
[1] = tested on: blood pressure; test: Effects on Blood Pressure and Heart Rate in the Anesthetized Cat (Test D); assay type: in vivo; settings: Felis catus, iv, i.v. 0.01 to 10.0 mcg/kg, scored on hypotension, read-out: Activity value, Test D: Normal Feline Blood Pressure and Heart Rate (ED50 mmHg)
Experimental: D. Evaluation of the Effects of Prostaglandin Analogs III on Blood Pressure and Heart Rate in the Anesthetized Cat
The acute effects of test compounds on blood pressure and heart rate were determined in cats of either sex anesthetized with a mixture of pentobarbital sodium (35 mg/kg, i.v.) and barbital sodium (100 mg/kg, i.v.). Cannulas were placed in the trachea to allow adequate spontaneous ventilation, in a femoral artery for blood pressure recording with a strain gage transducer, and in a saphenous vein for drug administration. Heart rate was recorded by means of a cardiotachometer driven by the R wave of the electrocardiogram. After a period of 10 min of stable recordings of blood pressure and heart rate, the test compound was administered intravenously at doses increasing from 0.01 to 10.0 mcg/kg, spaced one log and injected at 10 min intervals. All doses were injected in a volume of 0.1 ml/kg. Modifications of blood pressure and heart rate induced by the test compound were expressed both in absolute units (mmHg and beats/min) and as percent of values recorded immediately before administration of each dose. Biphasic responses were tabulated in the order in which they occur. The direction of the observed changes was also noted (+ for increase and - for decrease).
Activity of compounds in this test was judged only on the basis of the degree of hypotension observed. Thus, the ED50 mmHg (dose decreasing blood pressure by 50 mmHg) was calculated graphically and the compound scored according to the following scale: […]

[2] = tested on: rat uterus; test: Effects on the Rat Uterus (Test F); settings: for EC50: read-out: Activity value, Test F: Effects on Rat Uterus (ED50, response of 50% that of carbachol)
Experimental: F. Evaluation of the Effects of Prostaglandin Analogs III on the Rat Uterus
The uterine stimulant effect of test compounds is determined in segments of uterus obtained from rats (140-160 g) pretreated subcutaneously with 1 mg/kg of diethylstibesterol 18 hr before the experiment. The tissues are placed in 10 ml chambers filled with de-Jalon solution at 29° C. and bubbled with 95% O2 and 5% CO2, and prepared for isometric recording with force displacement transducers. Preparations are stretched to an initial tension of 1 g and are left undisturbed for 30 min, after which two responses to 1 mcg/ml of carbachol added to the bath at a 10 min interval, are obtained (the value of the second response is recorded). Responses to increasing concentrations of the test compound (0.001 to 10.0 mcg/ml with one log intervals) are then recorded every 10 min. Preparations are washed four times after each response. All doses of drugs are administered in a 0.1 ml volume. Since it has been observed that the magnitude of the second response to carbachol, which is approximately 10% greater than the first, is close to the maximal response of the tissue, such value is taken as a measure of the sensititity of the particular segment. Responses to each concentration of the test compound are expressed in terms of percentage of the second response to carbachol and the ED50 (dose producing a response of 50% that of carbachol) is calculated graphically. Activity is scored according to the following scale: […]

[3] = tested on: femoral blood flow; test: Effects on Femoral Blood Flow in the Dog (Test C); assay type: in vivo, dog (mongrel); settings: anesthetized dog, intraarterial 0.001 to 10 mcg
Experimental: C. Evaluation of the Effects of Prostaglandin Analogs III on the Femoral Blood Flow in the Dog
The peripheral vasodilator or constrictor effects of test compounds were determined in mongrel dogs of either sex, weighing between 10 and 20 kg anesthestized intravenously with 35 mg/kg of sodium pentobarbital. An external iliac artery was dissected immediately above the femoral arch for a length of approximately 5 cm and a previously calibrated, non-connulating electromagnetic flowmeter sensor with a lumen between 2.5 and 3.5 mm was placed snugly around the vessel. Cannulas were placed in a branch of the artery arising distally to the location of the flowmeter sensor for intraarterial drug administrations, in the contralateral femoral artery for systemic blood pressure recordings and in the trachea for artificial respiration with room air. Femoral blood flow and systemic blood pressure were continuously recorded with an electromagnetic flowmeter and pressure transducer, respectively.
After an adequate control period, test compounds were injected intraarterially at one log-spaced doses ranging from 0.001 to 10 mcg., in a volume of 0.5 ml and at 5 to 10 min intervals. Maximum changes in bloodflow, as well as any variations in blood pressure, were tabulated for each dose in absolute values (ml/min and mmHg). The calculations were made taking as control values those existing immediately before administration of each dose. The direction of the observed change (+ for increase and - for decrease) was also noted. The dose changing bloodflow by 100 ml/min (ED100 ml/min) was calculated graphically and was used for scoring activity as follows: […]

[4] = tested on: blood pressure (hypertensive rat); test: Effects on Blood Pressure in the Hypertensive Rat (Test E); assay type: in vivo; set-up: key: 0: Not significant at any time interval; 1: Significant at one time interval; 2: Significant at two time intervals; 3: Significant at three time intervals; 4: Significant at all four intervals; settings: 1 mg/kg intraperitoneal, 2, 4, 6 and 8 hr
Experimental: E. Evaluation of the Effects of Prostaglandin Analogs III on Blood Pressure in the Hypertensive Rat
The acute antihypertensive activity of test compounds is determined in rats made hypertensive by the procedure of Grollman (A. Proc. Soc. Exper. Biol. Med., 57:102, [1944]). Female rats weighing between 60 and 100 g are anesthetized with ether, the right kidney approached through a flank retroperitoneal incision, decapsulated and tied with a figure-of-eight ligature. The animals are left to recover and two weeks later are again anesthetized and the contralateral kidney removed. Four weeks after the second operation the rats are subjected to indirect blood pressure measurements and those showing systolic pressure values greater than 160 mmHg are selected for drug testing.
Blood pressure is measured in the tail with an inflatable occluding cuff placed at the base of the extremity and a pulse detector located distally. The cuff is inflated to approximately 300 mmHg and is slowly deflated until pulsations appear, indicating the level of systolic pressure; diastolic pressure is not recorded by this procedure. All measurements are carried out in unanesthetized, unsedated animals maintained in a warm environment during the recording procedure and for at least 6 hr before. In all cases, three pressure readings are obtained in succession and mean values are calculated thereof.
Experiments are carried out in groups of five hypertensive rats in which systolic pressure is determined immediately before and 2, 4, 6 and 8 hr after the intraperitoneal administration of the test compound at a dose of 1 mg/kg. Drugs are diluted from stock solutions with phosphate buffer (Lee et al., Prostaglandins 3:29 [1973]), so as to inject this quantity in a volume of 1 ml/kg. Changes from control blood pressure values are calculated for each interval both in mmHg and in per-cent, and evaluated for significance by means of Wilcoxon's signed rank test (Wilcoxon and Wilcox, Some rapid approximate statistical procedures, Lederle Laboratories, Pearl River [1964]).

[5] = rat uterus segments, 0.001 to 10.0 mcg/ml, 29° C.

Row | Structure (SMILES) | EC50 [2, 5] [µg/mL] | ED (50 mmHg) [1] [mg/kg] | further results
1 | CCC1CC(C(O)/C=C/[C@H]2C=CC(=O)[C@@H]2CCCCCCC(=O)OC)C1 (some centres unmarked) [TR-4280, Methyl 15RS-hydroxy-16,18-methano-9-oxoprosta-10,13E-dien-1-oate] | > 10 | – | –
2 | CCC1CC([C@H](O)/C=C/[C@H]2C=CC(=O)[C@@H]2CCCCCCCOC(C)=O)C1 (stereo partly drawn) [TR-4565, 1-Acetoxy-15S-hydroxy-16,18-methanoprosta-10,13E-dien-9-one] | > 10 | > 0.0101 | Activity value, Test C: Increase in Canidae Femoral Blood Flow (ED100 ml/min) [3]: 1 (1.0.-10.0)
3 | CCC1CC([C@H](O)/C=C/C2C(O)CC(O)C2CCCCCCCO)C1 (stereo partly drawn) [TR-4626, 16,18-Methanoprost-13E-en-1,9α,11α,15S-tetraol] | – | – | Activity value, Test F: Effects on Rat Uterus (ED50, response of 50% that of carbachol) [2, 5]: 0 (>10)
4 | CC1([C@@H](O)/C=C/[C@H]2[C@H](O)CC(=O)[C@@H]2CCCCCCCO)CCC1 [TR-4674, 16,19-Cyclo-16-methyl-20-nor-1,11α,15S-trihydroxyprost-13E-en-9-one] | > 10 | > 0.0101 | Activity value, Test E: Effects on Blood Pressure in Hypertensive Rat (blood pressure decrease) [4]: 0
5 | CCC1CC(C)([C@H](O)/C=C/[C@H]2[C@H](O)CC(=O)[C@@H]2CCCCCCC(=O)OC)C1 (stereo partly drawn) [TR-4681, Methyl 11α,15R-dihydroxy-16,18-methano-16-methyl-9-oxoprost-13E-en-1-oate] | > 10 | 0.00101 to 0.01 | Activity value, Test C: Increase in Canidae Femoral Blood Flow (ED100 ml/min) [3]: 2 (0.11-1.0)
6 | COC(=O)CCCCCC[C@H]1C(=O)C=C[C@@H]1/C=C/[C@@H](O)C1(C)CCC1 [TR-4683, Methyl 16,19-cyclo-15R-hydroxy-16-methyl-20-nor-9-oxoprosta-10,13E-dien-1-oate] | > 10 | – | –
7 | CCC1CC(C)([C@@H](O)/C=C/[C@H]2[C@H](O)CC(=O)[C@@H]2CCCCCCCO)C1 (stereo partly drawn) [TR-4689, 16,18-Methano-16-methyl-1,11α,15S-trihydroxyprost-13E-en-9-one] | > 10 | > 0.0101 | Activity value, Test C: Increase in Canidae Femoral Blood Flow (ED100 ml/min) [3]: 0 (>10.0)
8 | CCCCC1([C@H](O)/C=C/[C@H]2[C@H](O)CC(=O)[C@@H]2CCCCCCC(=O)OC)CCC1 [TR-4692, Methyl 11α,15R-dihydroxy-9-oxo-16,16-propanoprost-13E-en-1-oate] | > 10 | 0.00101 to 0.01 | Activity value, Test E: Effects on Blood Pressure in Hypertensive Rat (blood pressure decrease) [4]: 0
9 | CCC1CC(C)(C(O)/C=C/[C@H]2C=CC(=O)[C@@H]2CCCCCCC(=O)OC)C1 (stereo partly drawn) [TR-4694, Methyl 15R-hydroxy-16,18-methano-16-methyl-9-oxoprosta-10,13E-dien-1-oate] | > 10 | – | –
10 | COC(=O)CCCCCC[C@H]1C(=O)C[C@@H](O)[C@@H]1/C=C/[C@H](O)C1CC(CC2CCC2)C1 (stereo partly drawn) [TR-4796, Methyl 11α,15R-dihydroxy-16,18-methano-20,20-propano-9-oxoprost-13E-en-1-oate] | > 10 | – | –
11 | C[N+](C)(C)CCOC(N)=O [carbachol, reference compound] | – | – | magnitude of the second response greater than the first ([2]; carbachol 1 mcg/ml, rat uterus, 10 min interval): approximately 10%

The next lines start with results.

Row | EC50 [2, 5] [µg/mL] | Structure (SMILES) | ED (50 mmHg) [1] [mg/kg] | further results
12 | > 10 | CCC1CC([C@@H](O)/C=C/[C@H]2[C@H](O)CC(=O)[C@@H]2CCCCCCO)C1 (relative stereo) [TR-4675, (±)16,18-Methano-1-nor-2,11α,15R-trihydroxyprost-13E-en-9-one] | > 0.0101 | Activity value, Test C: Increase in Canidae Femoral Blood Flow (ED100 ml/min) [3]: 0 (>10.0)
13 | > 10 | CCC1CC([C@H](O)/C=C/[C@H]2[C@H](O)CC(=O)[C@@H]2CCCCCCO)C1 (relative stereo) [TR-4676, (±)16,18-Methano-1-nor-2,11α,15S-trihydroxyprost-13E-en-9-one] | > 0.0101 | Activity value, Test E: Effects on Blood Pressure in Hypertensive Rat (blood pressure decrease) [4]: 0; Activity value, Test C: Increase in Canidae Femoral Blood Flow (ED100 ml/min) [3]: 0 (>10.0)
14 | > 10 | COC(=O)CCCCCC[C@H]1C(=O)C[C@@H](O)[C@@H]1/C=C/[C@@H](O)C1CC(CC2CCC2)C1 (stereo partly drawn) [TR-4797, Methyl 11α,15S-dihydroxy-16,19-methano-20,20-propano-9-oxoprost-13E-en-1-oate] | – | –
15 | > 10 | O=C1C[C@@H](O)[C@H](/C=C/[C@H](O)C2CC(CC3CCC3)C2)[C@H]1CCCCCCCO (stereo partly drawn) [TR-4832, 1,11α,15R-Trihydroxy-16,18-methano-20,20-propanoprost-13E-en-9-one] | – | –
16 | > 10 | O=C1C[C@@H](O)[C@H](/C=C/[C@@H](O)C2CC(CC3CCC3)C2)[C@H]1CCCCCCCO (stereo partly drawn) [TR-4833, 1,11α,15S-Trihydroxy-16,18-methano-20,20-propanoprost-13E-en-9-one] | – | –
17 | > 10 | O=C1C[C@@H](O)[C@H](/C=C/[C@@H](O)C2CC(C3CCC3)C2)[C@H]1CCCCCCCO (stereo partly drawn) [TR-4880, 1,11α,15S-Trihydroxy-16,18-methano-19,20-ethanoprost-13E-en-9-one] | – | –
18 | > 10 | O=C1C[C@@H](O)[C@H](/C=C/[C@H](O)C2CC(C3CCC3)C2)[C@H]1CCCCCCCO (stereo partly drawn) [TR-4881, 1,11α,15R-Trihydroxy-16,18-methano-19,20-ethanoprost-13E-en-9-one] | – | –
19 | > 10 | COC(=O)CCCCCC[C@H]1C(=O)C[C@@H](O)[C@@H]1/C=C/[C@H](O)C1CC(C2CCC2)C1 (stereo partly drawn) [TR-4882, Methyl 11α,15R-dihydroxy-16,18-methano-19,20-ethano-9-oxoprost-13E-en-1-oate] | – | –
20 | > 10 | COC(=O)CCCCCC[C@H]1C(=O)C[C@@H](O)[C@@H]1/C=C/[C@@H](O)C1CC(C2CCC2)C1 (stereo partly drawn) [TR-4887, Methyl 11α,15S-dihydroxy-16,18-methano-19,20-ethano-9-oxoprost-13E-en-1-oate] | – | –
